Experimental data reported in PMC6597290 (Nature, 2019).

Experiments:
[1] = molecular target: T1, BT2068 (Bacteroides thetaiotaomicron, UniProt Q8A618); assay: LC-MS drug depletion by E. coli expressing bt2068; type: cell-based; settings: whole E. coli cells, anaerobic, 37 °C
T1 sequence (Q8A618 1-253): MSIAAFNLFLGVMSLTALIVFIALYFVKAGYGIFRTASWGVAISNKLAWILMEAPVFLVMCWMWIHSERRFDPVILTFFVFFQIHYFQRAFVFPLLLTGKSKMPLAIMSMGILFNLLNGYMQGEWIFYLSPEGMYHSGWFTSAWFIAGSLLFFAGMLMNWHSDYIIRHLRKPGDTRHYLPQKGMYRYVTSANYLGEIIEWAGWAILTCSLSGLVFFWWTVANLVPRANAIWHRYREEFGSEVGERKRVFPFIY

[2] = molecular target: T2, BT4096 (Bacteroides thetaiotaomicron, UniProt Q8A0C5); assay: LC-MS time course of deacetylation; type: biochemical; settings: Tris-HCl 10 mM pH 7, 2.5 mM MgSO4 and Mn, 37 °C; 0-250 µM substrate
T2 sequence (Q8A0C5 21-460): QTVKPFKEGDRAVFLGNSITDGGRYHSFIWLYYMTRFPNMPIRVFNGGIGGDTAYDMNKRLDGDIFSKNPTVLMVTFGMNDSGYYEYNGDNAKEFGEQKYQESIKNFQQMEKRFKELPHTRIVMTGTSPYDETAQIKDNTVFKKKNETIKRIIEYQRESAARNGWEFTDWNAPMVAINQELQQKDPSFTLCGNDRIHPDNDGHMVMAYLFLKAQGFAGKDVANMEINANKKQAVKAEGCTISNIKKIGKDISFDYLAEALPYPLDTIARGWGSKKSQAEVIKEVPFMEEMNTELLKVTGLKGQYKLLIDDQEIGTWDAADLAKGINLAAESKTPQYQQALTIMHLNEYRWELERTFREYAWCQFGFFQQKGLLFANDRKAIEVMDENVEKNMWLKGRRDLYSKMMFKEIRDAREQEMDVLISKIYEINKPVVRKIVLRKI

Row | SMILES | LC-MS drug depletion by E. coli expressing bt2068 [1] | LC-MS time course of deacetylation [2]
1 | C#C[C@]1(O)CC[C@H]2[C@@H]3CCC4=CC(=O)CC[C@@H]4[C@H]3CC[C@@]21CC [levonorgestrel] | BT2068 also metabolizes the structurally related compounds levonorgestrel and progesterone | –
2 | CNCCN1C(=O)[C@H](OC(C)=O)[C@H](c2ccc(OC)cc2)Sc2ccccc21 [N-desmethyldiltiazem] | – | BT4096 also deacetylates N-desmethyldiltiazem
3 | CC(=O)[C@H]1CC[C@H]2[C@@H]3CCC4=CC(=O)CC[C@]4(C)[C@H]3CC[C@]12C [progesterone] | BT2068 also metabolizes the structurally related compounds levonorgestrel and progesterone | –
4 | COc1ccc([C@@H]2Sc3ccccc3N(CCN(C)C)C(=O)[C@@H]2OC(C)=O)cc1 [diltiazem] | – | demonstrated that the purified enzyme catalyzes the drug transformation (Fig. 3c)
